Data from article PMC12752606, “METTL10‐Mediated PIAS3 Methylation Links Purine Metabolism to Gastric Cancer Progression” (Advanced Science, 2025).

Experiments:
ATK orthotopic tumors = experiment: Orthotopic ATK cell gastric cancer allograft model with flow cytometry of tumor-infiltrating cells; format: in vivo, C57BL/6 mice
Method: Orthotopic gastric cancer models were established by surgically implanting 1 × 10⁶ METTL10‐overexpressing or vector control ATK cells into the gastric subserosal layer of C57BL/6 mice under aseptic conditions. Tumor tissues were harvested 20 days post‐implantation for subsequent analyses. In a separate cohort, mice bearing orthotopic tumors (1 × 10⁶ cells implanted) received subcutaneous administration of LZQ‐02‐023‐01 at a dose of 40 mg/kg/day, starting 7 days after tumor implantation. The treatment continued daily for 14 consecutive days. Tumor burden and therapeutic response were assessed at the end of the treatment period by excision and analysis of gastric tumors.
Tumor tissues were finely minced into approximately 1 mm^3 pieces and enzymatically digested in Hank's Balanced Salt Solution (HBSS) containing type IV collagenase (2357210, Gibco) at 37 °C for 1 h. The resulting cell suspensions were gently triturated and passed through an 80 µm cell strainer (22131209, Biosharp) to remove debris. Red blood cells were lysed using ACK lysis buffer (R1010, Solarbio) to yield a single‐cell suspension. Cells were subsequently stained with a cocktail of fluorochrome‐conjugated antibodies (1:200 dilution; details listed in Table S6, Supporting Information) and a fixable viability dye (1:200, 2365395, Invitrogen) for 30 min at 4 °C in the dark. After washing, the stained cells were analyzed using a Sony ID7000 spectral flow cytometer (Sony Biotechnology).
Paraffin sections were initially placed in an oven at 65 °C for 30 min to melt the paraffin. The slides were then immersed in two consecutive xylene baths for 10 min each to dewax the tissue, followed by hydration through a series of graded ethanol solutions. The sections were stained with hematoxylin for 10 min. After differentiation with 1% hydrochloric acid alcohol, the sections were blued with lithium carbonate and counterstained with eosin for 3 min. The slides were then dehydrated in graded ethanol and mounted with neutral resin. All pathological results were performed in a blinded manner by experienced gastrointestinal pathologists. For IHC staining, sections were processed in accordance with the manufacturer's protocol (MXB Biotechnologies). Briefly, antigen retrieval was conducted at 37 °C for 30 min, followed by blocking at room temperature for 10 min. The sections were subsequently incubated with the appropriate primary antibody overnight at 4 °C. The following day, biotin‐conjugated secondary antibodies were applied and incubated for 1 h, followed by streptavidin‐peroxidase incubation for 10 min. Diaminobenzidine (DAB) was employed as the chromogen for visualization, and hematoxylin was used for counterstaining. Imaging was performed using the Olympus VS200 microscope.

METTL10 [1] = system: T1, METTL10; experiment: In vitro (cell-free) methylation of GST-PIAS3 by His-METTL10, immunoblotting; format: biochemical; conditions: 20 µM or higher; GST-PIAS3 with His-METTL10
T1 construct: purchased ICE Bioscience Inc
Method: For the in vitro methylation assay, His‐METTL10 (1 µg) was incubated with recombinant human Histone H4 protein (20 ng; Abcam, ab198115) or GST‐PIAS3 (100 ng) of in methylation reaction buffer (50 mM Tris‐HCl (pH 8.0), 20 mM KCl, 5 mM DTT, 4 mM EDTA) containing 20 µM S‐(5′‐adenosyl)‐L‐methionine chloride dihydrochloride (SAM) at 37 °C for 1 h. The reaction was terminated by boiling the samples in SDS‐PAGE loading buffer, and the products were analyzed by immunoblotting.

MKN45 and AGS cells = experiment: Cell proliferation, CCK-8 assay; format: cell-based; conditions: 10 and 20 µM
Method: Cell proliferation was assessed using Cell Counting Kit‐8 (CCK‐8; K1018, APExBIO). Briefly, 1000 cells per well were seeded into 96‐well plates, and proliferation was measured at 450 nm on days 0, 1, 3, 5, and 7 using the CCK‐8 assay using a multifunctional microplate reader.

METTL10 [2] = system: T1, METTL10; experiment: MTase-Glo screening assay, METTL10 with Histone H4 peptide substrate; format: biochemical; conditions: 10 µM
Method: To identify METTL10 inhibitors, an in‐silico screening was first conducted on an in‐house compound library comprising approximately 6000 structurally diverse molecules. Molecular docking simulations with the METTL10 protein identified 111 candidate compounds for further analysis. The methyltransferase activity of these candidates was assessed using the MTase‐Glo Methyltransferase Assay (Promega, V7601) according to the manufacturer's protocol. Briefly, the candidate compounds were preincubated with His‐METTL10 protein (1 µg) at 37 °C for 1 h in a methylation reaction buffer (50 mM Tris‐HCl (pH 8.0), 20 mM KCl, 5 mM DTT, 4 mM EDTA, and 20 µM SAM), followed by the addition of either the Histone H4 or PIAS3 peptide substrate for an additional 1 h. The reaction was then subjected to MTase‐Glo reagent buffer for 30 min, followed by MTase‐Glo detection buffer for another 30 min. Luminescence was measured using a luminometer (Promega), and IC50 values were calculated using GraphPad Prism 8 software.

[3] = system: purine nucleotides in MKN45 and AGS cells; experiment: Purine metabolite levels by LC-MS; format: cell-based; conditions: 20 µM
Method: Cells were collected and transferred to centrifuge tubes, followed by three washes with cold PBS. The samples were then resuspended in an extraction solution (methanol: acetonitrile: water = 2:2:1, v/v/v, 1 mL) and vortexed for 30 s. The suspension underwent ice bath sonication for 10 min and frozen and thawed in liquid nitrogen for repeated three times. To fully precipitate proteins, the samples were incubated at −20 °C for 1 h. Subsequently, the cell lysates were centrifuged at 13000 rpm for 15 min at 4 °C. The supernatant was then lyophilized using a low‐temperature vacuum centrifugal concentrator and analyzed by LC‐MS using the AB SCIEX QTRAP 6500^+ system.

[4] = system: gastric tumors of Cldn18-AT mice; experiment: Cldn18-AT advanced gastric cancer mouse model; format: in vivo; conditions: 40 mg/kg/day i.p., 28 days
Method: For the subcutaneous tumor model, 5 × 10⁶ MKN45 cells suspended in 100 µL of sterile PBS were injected subcutaneously into the flanks of BALB/c nude mice. When tumor volumes reached approximately 50 mm^3, mice were randomized into three groups (Vehicle control, LZQ‐02‐023‐01 at 20 mg/kg or 40 mg/kg, n = 10 per group). All treatments were administered via intraperitoneal injection once daily for 14 consecutive days. Tumor volumes were measured every 2 days using calipers and calculated using the formula: volume = [length × (width[2])]/2. Mice were sacrificed on day 24 for endpoint analyses. For genetically engineered mouse models (GEMMs), 25‐week‐old K19‐C2mE mice were randomized into Vehicle control (n = 8) and LZQ‐02‐023‐01 treatment (40 mg/kg, n = 8) groups. Both groups received daily intraperitoneal injections for 28 consecutive days. Similarly, 8‐week‐old Cldn18‐AT mice were induced with tamoxifen (100 mg/kg, T5648, Sigma) and, 2 weeks post‐induction, randomized into Vehicle (n = 6) and LZQ‐02‐023‐01 (40 mg/kg, n = 6) treatment groups. Treatments were administered daily via intraperitoneal injection for 28 days.
Paraffin sections were initially placed in an oven at 65 °C for 30 min to melt the paraffin. The slides were then immersed in two consecutive xylene baths for 10 min each to dewax the tissue, followed by hydration through a series of graded ethanol solutions. […]

[5] = 40 mg/kg/day for 14 days, flow cytometry

## Cc1ccc(Nc2ncc3c(n2)N(C)C(=O)N(c2cccc(N)c2)C3)cn1 [LZQ-02-023-01, Three‐(3‐aminophenyl)‐1‐methyl‐7‐((6‐methylpyridin‐3‐yl)amino)‐3,4‐dihydropyrimido [4,5‐d] pyrimidin‐2 (1H)‐one]
ATK orthotopic tumors; 40 mg/kg/day for 14 consecutive days, ATK orthotopic model, vs vehicle
  Tumor burden: significant reduction in tumor burden
ATK orthotopic tumors; 40 mg/kg/day for 14 days
  Proliferative activity (Ki-67 expression) of tumors: reduced proliferative activity
ATK orthotopic tumors; [5]
  Tumor-infiltrating B cells: modest decrease
  Tumor-infiltrating T lymphocytes (CD4+ and CD8+): moderate increase
METTL10 [1]
  Methylation of PIAS3 in cell-free system: decreased
MKN45 and AGS cells
  GC cell proliferation (CCK-8): significantly inhibited
METTL10 [2]
  Inhibition of METTL10 activity toward histone H4: significantly inhibited
[3]
  Levels of purine nucleotides: decreased
[4]
  Pathologic grade of lesions and proliferation (H&E, Ki-67): lower pathologic grade lesions and proliferation
  Tumor burden and progression: significantly reduced tumor burden and progression
